Consider 10 molecules from US20080139457A1, “Therapeutic compositions comprising chorionic gonadotropins and HMG CoA reductase inhibitors” (Virginia Commonwealth University, priority 2005, published 2008).

Series [1] concerns LNCaP cells. Description: Apoptosis assay in LNCaP cells (trypan blue exclusion). In kind it is cell-based, human. The conditions noted are these: for effect of inhibitor on cell viability / hCG lethality: LY294002 10 μM or AG1478 1 μM 30 min before hCG 2 mU/ml. As to the method:
Cell culture. Human prostate cells (PC3 and LCNaP) were purchased from the ATCC were cultured at 37° C. (5% (v/v CO2) in vitro using RPMI supplemented with 10% (v/v) fetal calf serum.
LNCaP cells were cultured as described above. […] The cells were isolated by trypsinization 96 hours after irradiation. The attached and floating cells were combined, and cell viability was determined by trypan blue exclusion assays using a light microscope (*p<0.05 value greater than corresponding vehicle/irradiated+vehicle value; n=3 per data point ±SEM from 3 studies).
LNCaP cells were cultured as described above. […] Caspase inhibitors were re-supplemented every 24 hours. After 96 hours of culture, cell viability numbers were determined MTT assays using a plate reader. The cells were isolated 96 hours after irradiation by trypsinization, the attached and floating cells combined, and cell viability determine by trypan blue exclusion assays using a light microscope.
(2) LNCaP cells were cultured as described above. […] Cells were isolated 96 h after irradiation by trypsinization, the attached and floating cells combined, and cell viability determine by trypan blue exclusion assays using a light microscope.
LNCaP cells were cultured as described above. […] Cells were isolated 96 hours after irradiation by trypsinization, the attached and floating cells combined, and cell viability determine by trypan blue exclusion assays using a light microscope. Cells were then lysed in SDS PAGE sample buffer and equal protein concentrations subjected to SDS PAGE followed by immunoblotting to determine the PARP1 ADP-ribosylation status (activity status) in the presence or absence of PJ-34.
LNCaP cells were cultured as described in Example 1. Twelve hours after plating the cells were transfected using Lipofectamine with either a scrambled siRNA (SCR) or with siRNA molecules to suppress PARP1 or AIF expression (siPARP; siAIF; 10 nM each). […] Cells were isolated 96 hours after irradiation by trypsinization, the attached and floating cells combined, and cell viability determine by trypan blue exclusion assays using a light microscope. Cells were then lysed in SDS PAGE sample buffer and equal protein concentrations subjected to SDS PAGE followed by immunoblotting to determine PARP1 and AIF expression in the presence or absence of siPARP and siAIF, siRNA molecules, respectively. PARP-induced cell death has been linked by some groups to the cytotoxic actions of AIF.
Apoptosis assay. LNCaP cells were cultured as described above. […] Cells were isolated by trypsinization 96 hours after irradiation, the attached and floating cells combined, and cell viability determine by trypan blue exclusion assays using a light microscope.
LNCaP cells were cultured as described above. […] Cells were isolated 96 hours after irradiation by trypsinization, the attached and floating cells combined, and cell viability determine by trypan blue exclusion assays using a light microscope.
LNCaP cells were cultured as described above. Twenty three hours after plating, cells were treated with either the control, vehicle (VEH, DMSO), or farnesyl pyrophosphate (FPP; 1 μM) or geranylgeranyl pyrophosphate (GGPP, 1 μM). […] In some cells the statin may enhance the effects of the chorionic gonadotropin by blocking farnesylation in which case the use of a farnesyl transferase inhibitor will be of further use.
Apoptosis assay in LNCaP Cells. (1) LNCaP cells were cultured as described above. Twelve hours after plating, cells were infected with either empty vector virus (CMV) or with viruses to express dominant negative AKT, dominant negative MEK1, dominant negative IkB, constitutively active AKT, and constitutively active MEK1 at a multiplicity of infection (m.o.i.) of 25. In other parallel plates of cells, 24 h after plating, cells were pretreated 30 minutes prior to any additional manipulation with either vehicle (VEH, DMSO) or a JNK½ inhibitory peptide (JNK-IP, 10 μM).

A further series relates to ERK½, JNK½, AKT (S473). Put plainly: Immunoblotting of phosphorylation status of ERK½, JNK½, AKT in LNCaP cells. The following applies: for effect on hCG-induced ERK½ activation: pertussis toxin 300 ng/ml, AG1478 1 μM or GM6001 1 μM, 30 min after hCG 2 mU/ml. It is filed as cell-based, human. As to the method: SDS-PAGE and Immunoblotting. The cells were plated at 5×10^5 cells/cm^2 and treated with drugs at the indicated concentrations and after the indicated time of treatment, lysed in whole-cell lysis buffer (0.5 M Tris-HCl, pH 6.8, 2% SDS, 10% glycerol, 1% β-mercaptoethanol, 0.02% bromophenol blue), and the samples were boiled for 30 minutes. The boiled samples were loaded onto 10-14% SDS-PAGE and electrophoresis was run overnight. Proteins were electrophoretically transferred onto 0.22 μm nitrocellulose, and immunoblotted with various primary antibodies against different proteins. All immunoblots were visualized by enhanced chemiluminescence (ECL).
(1) LNCaP cells were cultured as described above. […] 0-6 hours after treatment, the cells were isolated, lysed in SDS PAGE sample buffer and equal protein concentrations subjected to SDS PAGE followed by immunoblotting to determine the phosphorylation status (activity status) of ERK½, JNK½, AKT (S473) and the expression level of ERK2 protein.
(§1) (2) LNCaP cells were cultured as described above. 12 hours after plating, the cells were treated with vehicle (VEH, PBS) or pertussis toxin (300 ng/ml). 23 hours after plating cells were treated with vehicle (VEH, DMSO) or the ERBB1 inhibitor AG1478 (1 μM).
(4) LNCaP cells were cultured as described above. […] Thirty minutes after irradiation the cells were isolated, lysed in SDS PAGE sample buffer and equal protein concentrations subjected to SDS PAGE followed by immunoblotting to determine the phosphorylation status (activity status) of ERK½ and ERBB1 Y1068 and the expression levels of ERBB1 and ERK2 proteins.
LNCaP cells were cultured as described above. […] At the indicated times after treatment (12-96 h), the cells were isolated, lysed in SDS PAGE sample buffer and equal protein concentrations subjected to SDS PAGE followed by immunoblotting to determine the phosphorylation status (activity status) of ERK½, JNK½, AKT (S473) and the expression level of ERK2 protein.

For series [2], the system named is LNCaP cells. Put plainly: Cell survival (colony formation) assay in LNCaP cells. In kind it is cell-based, human. The conditions noted are these: AG1478 1 μM removed 96 h after hCG 2 mU/ml and 4 Gy; 28 days. As to the method: (§2) LNCaP cells were cultured as described above.
Apoptosis Assay. LNCaP cells were cultured as described above.
as §2

For the next series, the system named is ERBB1. Put plainly: Immunoblotting of ERBB1 phosphorylation in LNCaP cells. In kind it is cell-based, human. The following applies: for effect on hCG-induced ERBB1 Y1173 phosphorylation: AG1478 1 μM, pertussis toxin 300 ng/ml, PD184352 1 μM or GM6001 1 μM, 30 min after hCG 2 mU/ml. As for the experimental part: (§3) SDS-PAGE and Immunoblotting. The cells were plated at 5×10^5 cells/cm^2 and treated with drugs at the indicated concentrations and after the indicated time of treatment, lysed in whole-cell lysis buffer (0.5 M Tris-HCl, pH 6.8, 2% SDS, 10% glycerol, 1% β-mercaptoethanol, 0.02% bromophenol blue), and the samples were boiled for 30 minutes. […] All immunoblots were visualized by enhanced chemiluminescence (ECL).
as §1
(3) LNCaP cells were cultured as described above.
(4) LNCaP cells were cultured as described above.

A further series relates to PARP1. Put plainly: PARP1 ADP-ribosylation status (immunoblot) in LNCaP cells. In kind it is cell-based, human. The following applies: AG1478 5 minutes after or 30 minutes before radiation; hCG 2 mU/ml, 4 Gy. As to the method: as §3, §2, §2
Background: In western blotting, separated proteins are transferred to a membrane and probed.

The conditions of series [3]: cited from earlier work.
The test system of series [4] is LNCaP cells. Description: MTT cell growth assay in LNCaP cells. The conditions noted are these: caspase inhibitor 50 μM, radiation 4 Gy, 96 h. It is filed as cell-based, human. As to the method: LNCaP cells were cultured as described above. […] Caspase inhibitors were re-supplemented every 24 hours. After 96 hours of culture, cell viability numbers were determined MTT assays using a plate reader.
On the technique in general: Formazan colour is commonly taken as a measure of viable cells.

“Also recorded” adds a separate entry of the source.

Regarding `COc1cc2ncnc(Nc3cccc(Cl)c3)c2cc1OC` [AG1478], in the series with LNCaP cells [1] (96 h), the “effect of inhibitor on cell viability / hCG lethality” value is given as “did not significantly alter cell viability following hCG exposure”. In addition, the “effect on hCG-induced ERK½ activation” value in the series on ERK½, JNK½, AKT (S473) is listed as “blocked hCG-induced ERK½ activation”. For the same molecule, in the series with LNCaP cells [2], the “effect of ERBB1 inhibition on cell killing by hCG and radiation (colony formation)” value is “prevented the greater than additive induction of cell killing caused by combined hCG and radiation exposure”. Also, in the series with ERBB1, the “effect on hCG-induced ERBB1 Y1173 phosphorylation” value is given as “blocked”. In the series with PARP1, the “effect on PARP activation by combined hCG and radiation” value was “abolished the profound activation of PARP caused by combined hCG and radiation treatment”.
Consider `CC(C)=CCC/C(C)=C/CC/C(C)=C/CC/C(C)=C/COP(=O)(O)OP(=O)(O)O` [GGPP, geranylgeranyl pyrophosphate], for which the “effect on the lethal interaction between hCG and lovastatin” value in the series on LNCaP cells [1] (FPP 1 μM or GGPP 1 μM, lovastatin 0.6 μM, hCG 2 mU/ml, 96 h) is “abolished the lethal interaction between hCG and lovastatin”.
With `COC(=O)[C@H](CC(C)C)NC(=O)c1ccc(NC[C@@H](N)CS)cc1-c1ccccc1` [GGTI-286], the “cell killing with hCG when used in place of lovastatin” value in the series with LNCaP cells [1] (GGTI-286 10 μM with hCG) was “Identical data LNCaP cell killing data for hCG and lovastatin exposure were obtained”.
Consider `CNC(=O)[C@H](Cc1c[nH]c2ccccc12)NC(=O)[C@@H](CC(=O)NO)CC(C)C` [GM6001], for which the “effect on hCG-induced ERK½ activation” value in the series on ERK½, JNK½, AKT (S473) was “abolisged ERBB1 Y1173 phosphorylation and ERK½ activation”. Besides, in the series on ERBB1, the “effect on hCG-induced ERBB1 Y1173 phosphorylation” value is recorded as “abolisged ERBB1 Y1173 phosphorylation”.
On to `Cl.O=c1cc(N2CCOCC2)oc2c(-c3ccccc3)cccc12` [LY294002, 2-(4-Morpholinyl)-8-phenyl-4H-1-benzopyran-4-one hydrochloride], for which the “effect of inhibitor on cell viability / hCG lethality” value in the series with LNCaP cells [1] (96 h) was “enhanced hCG lethality in LNCaP cells in a greater than additive fashion”.
`O=C(NOCC1CC1)c1ccc(F)c(F)c1Nc1ccc(I)cc1Cl` [PD184352]: the “effect on hCG-induced ERBB1 Y1173 phosphorylation” value with ERBB1 is “abolished”. For the same molecule, the “effect on radiation-induced ERBB1 Y1173 phosphorylation” value in the series with ERBB1 (PD184352 1 μM, 4 Gy, 30 min after irradiation) is “did not alter radiation-induced ERBB1 Y1173 phosphorylation”.
Regarding `CN(C)CC(=O)Nc1ccc2[nH]c(=O)c3ccccc3c2c1` [PJ-34], the “effect of PARP inhibition on potentiation of hCG lethality by radiation” value with LNCaP cells [1] (PJ-34 5 μM, hCG 2 mU/ml, 4 Gy, 96 h) was “abolished the potentiation of hCG lethality by radiation”.
`CC[C@H](C)C(=O)O[C@H]1C[C@@H](C)C=C2C=C[C@H](C)[C@H](CC[C@@H]3C[C@@H](O)CC(=O)O3)[C@H]21` [lovastatin]: in the series on LNCaP cells [1] (lovastatin 0.1-0.6 μM 30 min before hCG 1 or 2 mU/ml, 96 h), the “enhancement of the lethality of hCG” value was “enhanced the lethality of hCG to an extent greater than was observed using a PI3K inhibitor”. Further, the “JNK½ activation, combined exposure” value in the series on ERK½, JNK½, AKT (S473) (lovastatin 0.6 μM with hCG 2 mU/ml, within 48 hours) is on record as “promoted JNK½ activation”. Further, in the series on ERK½, JNK½, AKT (S473) (lovastatin 0.6 μM, hCG 2 mU/ml, within 48 hours), the “hCG induced ERK½ and AKT activation” value is “suppressed hCG induced ERK½ and AKT activation”. Moreover, the “basal AKT activity” value in the series with ERK½, JNK½, AKT (S473) (lovastatin 0.6 μM, within 48 hours) was “suppressed basal AKT activity; also recorded: reduced AKT activity”. Further, the “concentrations achievable in human plasma” value in series [3] is 100 to 600 nM.
As for pertussis toxin, in the series on ERK½, JNK½, AKT (S473), the “effect on hCG-induced ERK½ activation” value is recorded as “suppressed hCG-induced activation of ERK½”. The “effect on hCG-induced ERBB1 Y1173 phosphorylation” value in the series on ERBB1 is given as “blocked”.
Take zVAD: the “effect of caspase inhibitor on lethality of lovastatin and hCG combination” value with LNCaP cells [1] (LEHD 50 μM or zVAD 50 μM, lovastatin 0.6 μM, hCG 2 mU/ml, 96 h) was “reduced the lethality of the lovastatin and hCG combination”. The “effect of caspase inhibitor on cell death by hCG and radiation” value with LNCaP cells [1] (caspase inhibitor 50 μM, hCG 2 mU/ml, 4 Gy, 96 h) was “modestly blunted”. Besides, the “protection from toxicity of ionizing radiation in MTT assays” value with LNCaP cells [4] is given as “partially protected cells from the toxicity of ionizing radiation”.
